In publication PMC10367051, “Comprehensive Mechanistic View of the Hydrolysis of Oxadiazole-Based Inhibitors by Histone Deacetylase 6 (HDAC6)” (ACS Chemical Biology, 2023):

These compounds were tested against T1, zHDAC6 (Y745F) (Danio rerio, UniProt F8W4B7, Y745F) (assay: Inhibition assay, zebrafish HDAC6 catalytic DD2 domain, Y745F mutant).
T1 construct: Danio rerio HDAC6 (amino acids 440–798; zHDAC6); His (N, cleaved yes); MBP (N, cleaved yes); made in house; host or cells: RIPL Escherichia coli
T1 sequence (F8W4B7 440-798 Y745F): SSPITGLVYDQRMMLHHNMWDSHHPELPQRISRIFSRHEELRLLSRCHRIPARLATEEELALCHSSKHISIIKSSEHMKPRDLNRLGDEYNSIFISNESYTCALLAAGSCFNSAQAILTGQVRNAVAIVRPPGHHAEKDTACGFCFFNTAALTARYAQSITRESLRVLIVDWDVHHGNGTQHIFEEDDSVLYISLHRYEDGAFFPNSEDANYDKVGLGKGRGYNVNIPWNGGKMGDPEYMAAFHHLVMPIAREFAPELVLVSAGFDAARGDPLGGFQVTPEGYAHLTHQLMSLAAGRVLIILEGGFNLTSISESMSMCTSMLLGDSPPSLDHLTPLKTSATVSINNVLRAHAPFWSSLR
Format: biochemical
Description: The second catalytic domain of Danio rerio HDAC6 (amino acids 440–798; zHDAC6) was expressed in RIPL Escherichia coli as described previously using the pEC566-zHDAC6 expression vector.[16],[38] Briefly, bacteria were incubated at 37 °C with shaking (250 rpm) until the optical density reached an OD600 = 0.5. Then, the culture was cooled to 18 °C for 1 h, and recombinant protein expression was induced by the addition of 75 μM isopropyl β-D-1-thiogalactopyranoside together with 200 μM ZnSO4. The culture was grown at 18 °C for an additional 18 h and harvested by centrifugation at 5500g for 15 min. The cell pellet was resuspended in the lysis buffer (50 mM phosphate, 300 mM NaCl, 10% glycerol, and 20 mM imidazole at pH 8; 5 mL g^–1 bacterial pellet) and lysed by three passages through EmulsiFlex (Avestin). Cell lysates were centrifuged (15,000g at 4 °C for 20 min), and the fusion protein in the supernatant was purified via Ni-NTA chromatography. Fractions containing the His-MBP-HDAC6 fusion were concentrated to 2 mg mL^–1 and cleaved overnight by the addition of TEV protease (zHDAC6/TEV 1:20 ratio). The cleaved tag and the TEV protease were sequentially removed using amylose (New England Biolabs) and HisTrap columns (Cytiva), and zHDAC6 was further purified by size-exclusion chromatography on a HiLoad Superdex 75 pg column (GE Healthcare Bio-Sciences). Fractions containing zHDAC6 were pooled, concentrated to 10 mg mL^–1, flash-frozen in liquid nitrogen, and stored at −80 °C. The purity of protein preparations was monitored by SDS-PAGE (Figure S2).
The zHDAC6 mutants (Y745F and H574A) were constructed using the Quick-change site-directed mutagenesis protocol with the pEC566-zHDAC6 expression plasmid as a template. Both mutants were expressed and purified as described above for wild-type zHDAC6 (Figure S2).
Optimized fluorometric assays were used to determine inhibition constants of studied compounds against individual HDAC isoforms as described previously.[32] Briefly, reactions were performed in the activity buffer comprising 50 mM HEPES, 140 mM NaCl, and 10 mM KCl at pH 7.4 supplemented with 1 mg mL^–1 bovine serum albumin (BSA), 1 mM tris(2-carboxyethyl)phosphine (TCEP), 10 μM substrates, and optimized concentrations of HDACs. The Ac-Gly-Ala-[Lys-Ac]-7-amino-methylcoumarylamide (AMC) substrate was used to profile HDACs 1, 2, 3, and 6; Boc-[Lys-TFA]-7-amino-methylcoumarylamide was used for HDACs 4, 5, 7, 8, and 9 (both substrates: Bachem); fluorescein-labeled N8-acetylspermidine was used for HDAC10;[32] and an internally quenched TNFα-derived peptide derivative was used for HDAC11.[39] Deacetylation reactions were monitored either by high-performance liquid chromatography (HPLC) (HDAC10) or by quantification of released AMC (λex/λem = 365/440 nm) using a CLARIOstar plate reader (BMG Labtech GmbH).

Point of comparison: `CS(=O)(=O)N(Cc1ccc(-c2nnc(C(F)F)o2)cn1)c1cccc(Cl)c1` [compound 8], IC50 75 ± 26 nM. Against it:
- CS(=O)(=O)N(Cc1ccc(-c2nnc(C(F)(F)F)o2)cn1)c1cccc(Cl)c1 [compound 7] — 4.1-fold higher, 311 ± 150 nM
- CS(=O)(=O)N(Cc1ccc(C(=O)NNC(=O)C(F)(F)F)cn1)c1cccc(Cl)c1 [compound 5] — higher, > 20000 nM
- CS(=O)(=O)N(Cc1ccc(C(=O)NN)cn1)c1cccc(Cl)c1 [compound 4] — higher, > 50000 nM
- CS(=O)(=O)N(Cc1ccc(C(=O)NNC(=O)C(F)F)cn1)c1cccc(Cl)c1 [compound 6] — higher, > 50000 nM
